Our source for the IC50 values is patent publication US9630947B2, “Therapeutic compounds and related methods of use” (OTSUKA PHARMACEUTICAL CO., LTD., priority 2009, dated 2017).

Some results are limits rather than exact numbers.

One may read the IC50 as the point on the concentration scale where inhibition reaches its midpoint.

The target of this assay is T1, purified STEP46 enzyme (Homo sapiens, UniProt P54829).
T1 sequence (P54829 1-565): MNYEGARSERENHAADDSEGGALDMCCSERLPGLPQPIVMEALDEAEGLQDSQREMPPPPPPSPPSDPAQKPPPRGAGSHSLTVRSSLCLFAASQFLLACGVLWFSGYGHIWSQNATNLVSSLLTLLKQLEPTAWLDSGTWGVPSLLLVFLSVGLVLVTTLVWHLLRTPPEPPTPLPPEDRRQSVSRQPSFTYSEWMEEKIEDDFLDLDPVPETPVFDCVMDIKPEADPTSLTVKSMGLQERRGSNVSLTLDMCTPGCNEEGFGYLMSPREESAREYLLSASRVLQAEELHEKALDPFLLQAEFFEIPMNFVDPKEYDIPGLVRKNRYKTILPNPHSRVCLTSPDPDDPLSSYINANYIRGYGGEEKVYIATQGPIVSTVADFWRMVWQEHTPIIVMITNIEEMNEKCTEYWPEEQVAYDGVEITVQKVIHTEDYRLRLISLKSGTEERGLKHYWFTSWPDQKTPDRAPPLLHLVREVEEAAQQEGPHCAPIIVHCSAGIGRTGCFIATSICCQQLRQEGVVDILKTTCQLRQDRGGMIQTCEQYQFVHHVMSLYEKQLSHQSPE
Put plainly: STEP46 biochemical assay (DiFMUP fluorescence phosphatase assay). Particulars: DiFMUP 10 μM, read-out: STEP IC50. The protocol:
STEP46 Biochemical Assays
Serial dilutions of compounds were performed in 100% DMSO and 1 uL of compounds were dispensed into 384-well black polystyrene plates (Corning, NY). Compounds were incubated with 24 uL of buffer containing 50 mM Hepes, 1 mM DTT, 0.02% Brij35, 1 ng/well purified STEP46 enzyme for 30 min at room temperature. The reaction was initiated by addition of 25 uL of DiFMUP (6, 8-difluoro-4-methylumbelliferyl phosphate) (InVitrogen, CA) with a final concentration of 10 μM and incubated at 27° C. for 90 min. Final DMSO concentration is 2%. Plates were read with florescence intensity at excitation/emission of 360/460 nm using a PheraStar plate reader (BMG Labtech, NC).
Data were expressed as percentage (%) inhibition of enzyme activity. 0% inhibition is defined as the RFUs (relative fluorescence units) in the absence of compounds and 100% inhibition is defined as RFUs in the absence of STEP46 enzyme. IC50 values of compounds with inhibitory activity against STEP46 were determined by GraphPad Prism (version 4.03) using four parameter logistic equation. Some compounds act as activators. For compounds showing STEP46 enzymatic activation, data are represented as percentage of inhibition but with negative values at three representative concentrations (25, 50 and 100 uM).
Consider `COc1ccc2nc(-c3cccnc3)nc(Nc3ccccc3C(=O)NC(C)c3cccc(C(F)(F)F)c3)c2c1` (stereo not drawn) [Compound 888], for which the IC50 was above 10000 nM.
With `COc1ccc2nc(-c3ccnnc3)nc(Nc3cccc(OC(F)(F)F)c3)c2c1` [Compound 1188] the figure was 1000 to 10000 nM.
As for `CN(C)c1nc(-c2cccnc2)nc2ccc(-c3cccc(Cl)c3)cc12` [Compound 1333], the IC50 is above 10000 nM.
As for `COc1cc(Cl)cc(-c2ccc3nc(-c4cccnc4)nc(Nc4ccc(F)c(Cl)c4)c3c2)c1` [Compound 663], the half-inhibitory concentration (IC50) was below 1000 nM.
With `Fc1ccc(Nc2nc(-c3ccnnc3)nc3cc(Cl)ccc23)cc1F` [Compound 1202] the figure was 1000 to 10000 nM.
As for `CNc1c(-c2ccc(C#N)cc2)ccc2nc(-c3cccnc3)nc(C)c12` [Compound 1424], the figure is above 10000 nM.
As for `CNc1nc(-c2ccncc2)nc2ccc(-c3ccc(F)cc3F)cc12` [Compound 1467], the figure is 1000 to 10000 nM; as for `COc1ccc2nc(-c3cccnc3)nc(Nc3ccc4c(C)cc(=O)oc4c3)c2c1` [Compound 316], below 1000 nM; as for `COc1ccc2nc(-c3cccnc3)nc(Nc3nc(-c4ccc(C)cc4)cs3)c2c1` [Compound 429], below 1000 nM.
On to `CCOc1ccc2nc(-c3ccnnc3)nc(Nc3cccc(OC(F)F)c3)c2c1` [Compound 1167], for which the IC50 is 1000 to 10000 nM.
With `COc1ccc2nc(-c3cccnc3)nc(Nc3ccc4ccc(=O)[nH]c4c3)c2c1` [Compound 325] the figure was below 1000 nM.
Consider `Cc1ccc(F)c(-c2ccc3nc(-c4cccnc4)nc(Nc4ccc(F)c(Cl)c4)c3c2)c1` [Compound 669], for which the IC50 is below 1000 nM.
For the compound `CNc1nc(-c2cccnc2)nc2ccc(-c3ccc4c(cnn4C)c3)cc12` [Compound 1366], the IC50 was in the range of 1000 to 10000 nM.
As for `Cc1cccc2c(Nc3cccc(OC(F)F)c3)nc(-c3ccnnc3)nc12` [Compound 1168], the figure is 1000 to 10000 nM; as for `Fc1ccc(Nc2nc(-c3cccnc3)nc3cc(-c4ccccc4)ccc23)cc1Cl` [Compound 692], below 1000 nM; as for `CNc1nc(-c2cccnc2)nc2c(C)c(-c3cccc(F)c3F)ccc12` [Compound 1451], 1000 to 10000 nM.
As for `COc1ccc2nc(-c3cccnc3)nc(Oc3ccc(Cl)c(Cl)c3)c2c1` [Compound 344], the IC50 is 1000 to 10000 nM.
Turning to `CCOc1ccc2nc(-c3cccnc3)nc(Nc3ccc4ccsc4c3)c2c1` [Compound 315], the IC50 lay within 1000 to 10000 nM.
`Fc1ccc(-c2ccc3nc(-c4cccnc4)nc(Nc4ccc(F)c(Cl)c4)c3c2)cc1` [Compound 638]: the IC50 is 1000 to 10000 nM.
With `NC(=O)c1ccccc1Nc1nc(-c2cnccn2)nc2cc(Cl)ccc12` [Compound 1143] the figure was 1000 to 10000 nM; with `COc1ccc2nc(-c3cccnc3)nc(Nc3nc(-c4ccc(F)cc4)cs3)c2c1` [Compound 419], below 1000 nM; with `Fc1ccc(Nc2nc(-c3ccnnc3)nc3ccccc23)cc1Cl` [Compound 1216], below 1000 nM.
With `CNc1nc(-c2cccnc2)nc2cc(-c3ccc(Cl)cc3)ccc12` [Compound 1354], the IC50 lay in the range of 1000 to 10000 nM.
With `CNc1nc(-c2cccnc2)nc2c(C)c(-c3ccc(F)c(F)c3)ccc12` [Compound 1445] the figure was 1000 to 10000 nM; with `COc1ccc2nc(-c3ccnnc3)nc(Nc3ccc(F)c(Cl)c3)c2c1` [Compound 1185], 1000 to 10000 nM.
Turning to `COc1ccc2nc(-c3cccnc3)nc(Nc3nc(-c4ccc(C#N)cc4)cs3)c2c1` [Compound 448], the IC50 is below 1000 nM.
With `COc1cc(OC)cc(-c2ccc3nc(-c4cccnc4)nc(Nc4ccc(F)c(Cl)c4)c3c2)c1` [Compound 642] the figure was below 1000 nM; with `COc1ccc2nc(-c3cccnc3)nc(Nc3cccc(-c4ccc(Cl)cc4)c3)c2c1` [Compound 427], 1000 to 10000 nM.
As to `CNc1nc(-c2cccnc2)nc2cc(-c3cc(F)cc(F)c3)c(C)cc12` [Compound 1408], the IC50 was in the range of 1000 to 10000 nM.
As for `N#Cc1ccccc1-c1ccc2nc(-c3cccnc3)nc(Nc3ccc(F)c(Cl)c3)c2c1` [Compound 639], the figure is below 1000 nM.
